Experimental data as given in article PMC12172326 (Journal of Biomedical Science, 2025).
Read-outs that look alike come from different tables or passages of the source.

Legend:
[1] = ex vivo stability in mouse plasma; type: in vitro ADME; conditions: 100 μg/ml, room temperature, 0-180 min
Experimental: An ex vivo evaluation of drug stability was conducted in mouse and human plasma samples (WuXi AppTec, Shanghai, China). […] Samples were, thereafter, incubated at room temperature for 0, 15, 30, 60, 120, and 180 min before immediate drug extraction. […] Extraction was performed by adding ethyl acetate containing the internal standard (donepezil—known to undergo first-pass hepatic metabolism) to the spiked sample (100 μL), vortexed for 1 min, and centrifuged at 13,000 rpm, 4 °C for 10 min. The supernatant was used for LC–MS/MS analysis.
LC–MS/MS analysis was performed with a Vanquish Flex UHPLC (Thermo Scientific) and a Orbitrap Exploris 240 mass spectrometer (Thermo Scientific). Samples were separated on a C18 UHPLC column (100 mm × 2.1 mm, 3 μm; Thermo Scientific). The mobile phase A for LC separation was 0.1% formic acid and the mobile phase B was 0.1% formic acid in methanol. The chromatography gradient was designed for a linear increase from 5% B in 1 min, 5% B to 95% B in 8 min, 95% B in 3 min, and 5% B in 3 min. The flow rate was maintained at 0.3 mL/min. Mass spectra were acquired using the data-dependent Top 4 MS2 (ddMS2) method with a mass scan (100–1000 m/z) and 120,000 MS resolution.

[2] = mouse pharmacokinetics, plasma and brain, I.P.; type: in vivo; conditions: for Kp / Cmax / Tmax / AUC(0-inf) / AUC(0-t): male, C57/BL6 J, ip; for Kp: brain/plasma, from AUCinfinity values
Experimental: Mice were euthanized from 30 min to 18 h after dosing. Blood samples were collected into heparinized tubes, centrifuged (10,000g × 2 min at 4 °C), and plasma collected and immediately stored at − 80 °C. The brain was rapidly excised on wet ice; a sample of cerebral hemisphere was then removed and immediately frozen to − 80 °C.

[3] = system: mice subjected to controlled cortical impact (CCI) TBI; assay: CCI TBI in mice: histology and GFAP/IBA1 immunohistochemistry; type: in vivo, mouse
Experimental: For behavioral analyses, mice were assessed for spatial memory, gait function, motor coordination/balance function and home cage activity. The animals were subsequently evaluated for cellular changes using histology and immunohistochemistry after euthanasia.
In order to develop a controlled cortical impact (CCI) model of TBI, mice were anesthetized with 2.5% 2,2,2-tribromoethanol (Avertin, 400 mg/kg, I.P.) (Sigma, St. Louis, MO, USA) and placed in a stereotaxic frame (Kopf Instruments, Tujunga, CA, USA). A 4 mm craniotomy was performed under sterile procedures; the craniotomy point was selected midway between the lambda and bregma sutures, and laterally midway between the central suture and the temporalis muscle. The skull fragment was then carefully removed without disruption of the underlying dura on the right side of the head. Before injury, the tip of the impactor was angled and kept perpendicular to the exposed cortical surface. The mouse CCI instrument consisted of an electromagnetic impactor, Impact One (Leica Biosystems Inc., Buffalo Grove, IL, USA) that allows independent manipulation of injury severity by adjusting the contact duration and velocity of a metal impactor and the depth of cortical deformation. In these experiments, the contact velocity was set at 5.0 m/s, the dwell time was set at 0.2 s, and the deformation depth was set at 1.5 mm to produce a moderate TBI. The injury site was cleaned and dried by use of sterile cotton tipped applicators prior to suturing the wound. During surgery and recovery, the body temperature of all animals was maintained at 36–37 °C by using a heating pad.
Two weeks following injury, mice were deeply anesthetized using isoflurane and underwent transcardial perfusion with 30 ml of phosphate-buffered saline (PBS) followed by 120 ml of 4% paraformaldehyde (PFA) in PBS. The brains were collected and placed into a 4% PFA solution for post-fixation overnight, and then transferred to 25% followed by 30% sucrose solution in PBS for dehydration. Sections of a region extending from the striatum to the hippocampus were cut coronally into 25 μm thickness using a cryostat (Leica Biosystems Inc., Buffalo Grove, IL, USA) and stored in a cryoprotectant solution. These sections were subjected to Giemsa (nuclear/chromosomal) staining and immunohistochemical analysis.
Brain sections obtained 2 weeks post-TBI, with a thickness of 25 µm, were placed onto slides. These sections were stained using a 10% Giemsa KH2PO4 buffered solution (pH 4.5) for 30 min at 40 °C. Following a rinse, the slides underwent de-staining, differentiation, dehydration in absolute ethanol, cleared in xylene, and then were cover-slipped. Subsequently, the slides were scanned using an All-in-One Fluorescence Microscope BZ-X710 (Keyence Corporation of America, Itasca, IL, USA). Brain image areas were quantified using ImageJ 1.52q software (National Institutes of Health, Bethesda, MD, USA). The contusion volume size and lateral ventricle size were determined as described previously, using the calculation formulas as follows:
Contusion volume size: Σ (area of contralateral hemisphere–area of ipsilateral hemisphere)/Σ area of contralateral hemisphere × 100.
Lateral ventricle size: Σ area of ipsilateral lateral ventricle/Σ area of contralateral lateral ventricle.
Nine brain sections from each mouse were quantified, spanning regions from bregma 0.86 mm to − 1.46 mm.
Immunohistochemistry for GFAP and IBA1 was performed as described previously. […]

[4] = human; cited from earlier work
[5] = 2 weeks after CCI, 13.23 and 26.47 mg/kg I.P. at 30 min and 24 h
[6] = both low and high doses, p < 0.0001

Question: Which “ex vivo stability in mouse plasma” value [1] does the source give for `Nc1cccc2c1C(=S)N(C1CCC(=O)NC1=O)C2=O` (centres unmarked) [3-MP, 3-monothiopomalidomide] here?
Answer: stable

Question: And the AUCInf ([2]; brain, 2.65 mg/kg I.P.)?
Answer: 676.54 ng·h/g

Question: What about the AUCLast ([2]; brain, 2.65 mg/kg I.P.) of the same compound?
Answer: 550.20 ng·h/g

Question: And the AUCInf ([2]; brain, 26.5 mg/kg I.P.)?
Answer: 9052.48 ng·h/g

Question: What about the AUCLast ([2]; brain, 26.5 mg/kg I.P.) of the same compound?
Answer: 8968.50 ng·h/g

Question: And the Kp ([2]; 2.65 mg/kg, 2.65 mg/kg I.P., read-out: Brain/plasma ratio)?
Answer: 0.47

Question: And the Kp ([2]; 2.65 mg/kg, across the two doses 26.47 and 2.65 mg/kg I.P., read-out: brain/plasma drug concentration ratio)?
Answer: 0.44 to 0.47

Question: And the Kp ([2]; 26.5 mg/kg, 26.5 mg/kg I.P., read-out: Brain/plasma ratio)?
Answer: 0.44

Question: And the Cmax ([2]; brain, 2.65 mg/kg I.P.)?
Answer: 454 ng/g

Question: And the Tmax ([2]; brain, 2.65 mg/kg I.P.)?
Answer: 30 min

Question: What about the Cmax ([2]; brain, 26.5 mg/kg I.P.) of the same compound?
Answer: 4230 ng/g

Question: And the Tmax ([2]; brain, 26.5 mg/kg I.P.)?
Answer: 60 min

Question: And the AUC(0-inf) ([2]; plasma, 2.65 mg/kg I.P.)?
Answer: 1440 ng·h/mL

Question: And the AUC(0-t) ([2]; plasma, 2.65 mg/kg I.P.)?
Answer: 1410 ng·h/mL

Question: And the Cmax ([2]; plasma, 2.65 mg/kg I.P.)?
Answer: 978 ng/mL

Question: What about the Tmax ([2]; plasma, 2.65 mg/kg I.P.) of the same compound?
Answer: 30 min

Question: What about the AUC(0-inf) ([2]; plasma, 26.5 mg/kg I.P.) of the same compound?
Answer: 20800 ng·h/mL

Question: What about the AUC(0-t) ([2]; plasma, 26.5 mg/kg I.P.) of the same compound?
Answer: 20700 ng·h/mL

Question: And the Cmax ([2]; plasma, 26.5 mg/kg I.P.)?
Answer: 9580 ng/mL

Question: What about the Tmax ([2]; plasma, 26.5 mg/kg I.P.) of the same compound?
Answer: 60 min

Question: And the “contusion volume (loss of cortical tissue)” value [3, 5]?
Answer: unchanged

Question: What about the lateral ventricle enlargement [3, 5] of the same compound?
Answer: unchanged

Question: What about the “TBI-induced morphological alterations in astrocytes (surface area, cell volume, branch area, branch length, number of branches)” value ([3]; both low and high doses, ipsilateral (p < 0.0001) and contralateral cortex) of the same compound?
Answer: significantly ameliorated

Question: What about the “CCI-induced microglial morphological alterations (ramification index, branches, branch length, spanned area, junctions, endpoints)” value [3, 6] of the same compound?
Answer: partially but significantly returned

Question: And the “astrocyte complexity (total Sholl intersections)” value [3, 6]?
Answer: significantly mitigated

Question: What about the “stability in ex vivo plasma and liver homogenate samples” value [4] of the same compound?
Answer: relatively stable
